What was measured:
human STING (WT) = human STING (WT) (Homo sapiens (Human), UniProt Q86WV6, H232R); assay: Differential scanning fluorimetry (DSF), huSTING (WT); format: binding; conditions: 2 μM protein, compound 100 μM; Tm with ligand minus Tm of protein alone (1% DMSO); read-out: DSF huSTING (WT) ΔTm (° C.)
Experimental: Biophysical experiments were performed with three different recombinant human STING protein variants designated according to allelic nomenclature of Yi et al., (2013). […] These were ligated into a modified pET43a E. coli expression vector designed to encode N-terminal His tag followed by tobacco etch virus protease (TEV) cleavage site and a STING gene sequence. The resulting protein sequences for the three allelic variants are listed below: […] Cultures were then cooled to 16° C. and protein expression induced by the addition of isopropyl β-D-1-thiogalactopyranoside to a final concentration of 0.5 mM and the cultures shaken overnight for further 16 hours. Following expression, cell cultures were centrifuged at 5000×g for 20 min and cell pellet stored frozen at −70° C. Protein purification was initiated by thawing the cell pellet in Lysis buffer (25 mM Tris-HCl pH 8.0, 300 mM NaCl, 5 mM DTT, 2 mM MgCl2, 10 mM imidazole, 0.5 mg/ml lysozyme, benzonase endonuclease [EMD Millipore], 1 mM PMSF, complete protease inhibitor tablets EDTA-free [Roche]) using a ratio of 7 ml of buffer per 1 g of cells. Cells were further lysed by 3 passes through an ice cooled Avestin C5 cell crusher and then centrifuged at 48,000×g at 4° C. […] The IMAC column was then sequentially washed with IMAC Wash buffer 1 and IMAC Wash buffer 2 (25 mM Tris-HCl pH 8.0, 300 mM NaCl, 5 mM DTT, 20 mM Imidazole) and bound His-TEV-hSTING protein eluted with IMAC Elution buffer (25 mM Tris-HCl pH 8.0, 300 mM NaCl, 5 mM DTT, 250 mM Imidazole). […] Differential scanning fluorimetry (DSF) is a rapid screening method for identifying low-molecular-weight ligands that bind and, in doing so, stabilize (or sometimes destabilize) purified proteins (Niesen 2007). DSF monitors thermal unfolding of protein in the presence of a fluorescent dye and is typically performed using a real-time PCR instrument. The temperature at which a protein unfolds is measured by an increase in the fluorescence of a dye with affinity for hydrophobic parts of the protein that are gradually being exposed during unfolding. The fluorescence of the dye is quenched in aqueous environments, but when the dye associates with hydrophobic sites on unfolded protein, its fluorescence increases. The fluorescence intensity is plotted as a function of the temperature, generating a sigmoidal curve that can be described by a two-state transition. The inflection point of the transition curve (Tm) is calculated using simple equations such as that of Boltzmann. Thermal stability of STING protein (with and without bound ligand) was measured using previously described methodology (Seabrook & Newman, 2013), with samples tested in triplicate using 96-well PCR microplate (AB Gene, ABGAB-0600/W). […] Sealed plates were placed into Bio-Rad CFX96/C1000 thermocycler and FRET scanning mode (λ^excitation of 490 nm and reads at a λ^emission of 570 nm). Melting curves were recorded from 20° C. to 100° C. in 0.5° C. increments every 30 seconds with a read at each increment. Data were analysed using “Meltdown analysis” protocol described by Rosa (2015).

[1] = biological target: human HAQ isoform of STING (THP-1 STING Lucia ISG cells) (Homo sapiens (Human), UniProt Q86WV6, G230A/H232R/R293Q/R71H); assay: THP-1 STING Lucia ISG reporter cell line assay; format: cell-based; conditions: 24 h incubation, QUANTI-Luc luminescence
Experimental: THP-1 STING Lucia ISG cells (InvivoGen #thpI-isg) were cultured in RPMI-1640 containing 2 mM L-glutamine, 25 mM HEPES, 100 μg/mL Normocin (InvivoGen) and 10% heat-inactivated FBS. Cells were seeded at a density of 7×10^5 cells/mL, maintained at 37° C./5% CO2, and passaged every 3-4 days. Selection pressure was maintained by the addition of 100 μg/mL Zeocin every second passage.
Assay conditions: cells were harvested and resuspended at a concentration of 5×10^5 cells/mL in fresh growth media. Of this cell preparation 20 μL per well was dispensed into 384 well cell culture plates (Greiner, #781098X) and incubated at 37° C./5% CO2 for 2 hours. Concentration Response Curves (commonly 11 doses) were prepared by 2.5 fold serial dilution starting from 10 mM compound stock solution in DMSO. Compound dilutions were transferred into the cell culture plates using a pintool (0.1 μL transfer), control wells were matched for DMSO. Positive control wells received ML RR—S2 CDA (Med Chem Express HY12885B) in 5 μL of media to a final concentration of 40 μM. All other wells received additional 5 μL of media only to equalise volume. The plates were incubated for 24 h at 37° C./5% CO2.
For the detection step, QUANTI-Luc (InvivoGen #rep-qlc1) was prepared according to manufacturer's instruction and 10 μL were added per well to the culture plates. Plates were shaken for ten seconds on an orbital shaker and left in the dark at room temperature for two minutes, before luminescence was read on a Perkin Elmer Envision plate reader.
Data analysis: Luminescence raw data was normalised % activity relative to the signal of the positive control wells and negative control wells which were not treated with compound. The following formula was used to calculate normalised % activity from raw signals: % activity=(sample−negative)/(positive−negative)
The THP-1 STING Lucia ISG cell EC50 provides an assessment of activity at the human HAQ isoform of STING. For assessing compound activity against the WT human STING isoform, an equivalent method was conducted where the cells used were THP-1-Dual KI-hSTING-R232 (InvivoGen #thpd-r232).

Sequence of human HAQ isoform of STING (THP-1 STING Lucia ISG cells) (Q86WV6 whole entry R71H/G230A/H232R/R293Q, canonical isoform): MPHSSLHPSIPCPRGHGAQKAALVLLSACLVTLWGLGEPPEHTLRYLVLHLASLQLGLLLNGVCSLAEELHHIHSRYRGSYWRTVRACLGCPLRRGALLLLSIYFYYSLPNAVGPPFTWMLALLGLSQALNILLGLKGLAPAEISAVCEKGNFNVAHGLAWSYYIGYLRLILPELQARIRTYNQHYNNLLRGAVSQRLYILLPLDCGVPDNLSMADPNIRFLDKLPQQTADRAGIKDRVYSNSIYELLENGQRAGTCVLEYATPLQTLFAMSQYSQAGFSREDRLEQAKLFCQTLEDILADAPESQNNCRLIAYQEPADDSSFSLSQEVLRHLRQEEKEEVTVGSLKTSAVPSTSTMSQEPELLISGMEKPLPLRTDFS
Sequence of human STING (WT) (Q86WV6 other isoform, or with tags, fused parts or gaps, stated change not applied): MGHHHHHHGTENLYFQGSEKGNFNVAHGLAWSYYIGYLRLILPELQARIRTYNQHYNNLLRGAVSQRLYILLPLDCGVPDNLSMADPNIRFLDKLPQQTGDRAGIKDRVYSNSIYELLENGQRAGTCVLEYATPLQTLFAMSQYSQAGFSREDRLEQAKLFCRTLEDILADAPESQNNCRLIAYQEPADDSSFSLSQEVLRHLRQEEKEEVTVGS

SMILES: COc1c(C(N)=O)cc(F)c2c1nc(-c1c(F)cc(F)cc1C(=O)O)n2CCn1c(-c2c(F)cc(F)cc2C(=O)O)nc2c(OC)c(C(N)=O)cc(F)c21 [Example 18, 2,2′-(Ethane-1,2-diylbis(5-carbamoyl-7-fluoro-4-methoxy-1H-benzo[d]imidazole-1,2-diyl))bis(3,5-difluorobenzoic acid)]
- ΔTm at 100 µM (human STING (WT)): 2.4 °C
- EC50 [1]: 326 nM

SMILES: COc1c(C(N)=O)cc(F)c2c1nc(-c1ccc(Cl)cc1C(=O)O)n2CCn1c(-c2ccc(Cl)cc2C(=O)O)nc2c(OC)c(C(N)=O)cc(F)c21 [Example 20, 6,6′-(Ethane-1,2-diylbis(5-carbamoyl-7-fluoro-4-methoxy-1H-benzo[d]imidazole-1,2-diyl))bis(3-chlorobenzoic acid)]
- ΔTm at 100 µM (human STING (WT)): -3 °C
- EC50 [1]: 1300 nM

SMILES: COC(=O)c1c(Br)cccc1-c1nc2c(OC)c(C(N)=O)ccc2n1CCn1c(-c2cccc(Br)c2C(=O)OC)nc2c(OC)c(C(N)=O)ccc21 [Example 21, Dimethyl 6,6′-(ethane-1,2-diylbis(5-carbamoyl-4-methoxy-1H-benzo[d]imidazole-1,2-diyl))bis(2-bromobenzoate)]
- ΔTm at 100 µM (human STING (WT)): 2.33 °C
- EC50 [1]: 1490 nM

SMILES: COc1c(C(N)=O)ccc2c1nc(-c1ccc(Cl)cc1-c1cn[nH]n1)n2CCn1c(-c2ccc(Cl)cc2-c2cn[nH]n2)nc2c(OC)c(C(N)=O)ccc21 [Example 24, 1,1′-(Ethane-1,2-diyl)bis(2-(4-chloro-2-(2H-1,2,3-triazol-4-yl)phenyl)-4-methoxy-1H-benzo[d]imidazole-5-carboxamide)]
- ΔTm at 100 µM (human STING (WT)): -3.16 °C
- EC50 [1]: 2670 nM

SMILES: COc1c(C(N)=O)ccc2c1nc(-c1ccc(C)cc1C(=O)O)n2CCn1c(-c2ccc(C)cc2C(=O)O)nc2c(OC)c(C(N)=O)ccc21 [Example 25, 6,6′-(Ethane-1,2-diylbis(5-carbamoyl-4-methoxy-1H-benzo[d]imidazole-1,2-diyl))bis(3-methylbenzoic acid)]
- ΔTm at 100 µM (human STING (WT)): -18.4 °C
- EC50 [1]: 2960 nM

SMILES: COc1c(C(N)=O)ccc2c1nc(-c1cc(C)ccc1C(=O)O)n2CCn1c(-c2cc(C)ccc2C(=O)O)nc2c(OC)c(C(N)=O)ccc21 [Example 26, 2,2′-(Ethane-1,2-diylbis(5-carbamoyl-4-methoxy-1H-benzo[d]imidazole-1,2-diyl))bis(4-methylbenzoic acid)]
- ΔTm at 100 µM (human STING (WT)): 1.13 °C
- EC50 [1]: 3380 nM

SMILES: COc1c(C(N)=O)ccc2c1nc(-c1cnccc1C(=O)O)n2CCn1c(-c2cnccc2C(=O)O)nc2c(OC)c(C(N)=O)ccc21 [Example 30, 3,3′-(Ethane-1,2-diylbis(5-carbamoyl-4-methoxy-1H-benzo[d]imidazole-1,2-diyl))diisonicotinic acid]
- ΔTm at 100 µM (human STING (WT)): 0.29 °C
- EC50 [1]: 39100 nM

SMILES: COc1c(C(N)=O)ccc2c1nc(-c1ncc(Cl)cc1C(=O)O)n2CCn1c(-c2ncc(Cl)cc2C(=O)O)nc2c(OC)c(C(N)=O)ccc21 [Example 31, 2,2′-(Ethane-1,2-diylbis(5-carbamoyl-4-methoxy-1H-benzo[d]imidazole-1,2-diyl))bis(5-chloronicotinic acid)]
- ΔTm at 100 µM (human STING (WT)): 0.18 °C
- EC50 [1]: > 40000 nM

SMILES: COc1c(C(N)=O)ccc2c1nc(-c1ccc(Cl)cc1-c1noc(=O)[nH]1)n2CCn1c(-c2ccc(Cl)cc2-c2noc(=O)[nH]2)nc2c(OC)c(C(N)=O)ccc21 [Example 32, 1,1′-(Ethane-1,2-diyl)bis(2-(4-chloro-2-(5-oxo-4,5-dihydro-1,2,4-oxadiazol-3-yl)phenyl)-4-methoxy-1H-benzo[d]imidazole-5-carboxamide)]
- ΔTm at 100 µM (human STING (WT)): 0.51 °C
- EC50 [1]: > 40000 nM

SMILES: CCc1ccc(-c2nc3c(OC)c(C(N)=O)ccc3n2CCn2c(-c3ccc(CC)cc3C(=O)O)nc3c(OC)c(C(N)=O)ccc32)c(C(=O)O)c1 [Example 33, 6,6′-(Ethane-1,2-diylbis(5-carbamoyl-4-methoxy-1H-benzo[d]imidazole-1,2-diyl))bis(3-ethylbenzoic acid)]
- ΔTm at 100 µM (human STING (WT)): 1.17 °C
- EC50 [1]: > 40000 nM

Reference: patent US12415785B2, “Compound modulators of sting” (CTXT PTY LTD, priority 2019, dated 2025)
